# Reference: article PMC9095466 (Nature, 2022)
# Where “and” joins values, the source holds several entries; their conditions need not be identical. Equal values may be shown once. Read-outs that look alike come from different tables or passages of the source.
# Experiments:
# [1] = test system: SARS-CoV-2 B.1.617.2 (Delta); assay: K18-hACE2 mice infected with Delta VOC, IHC of nucleocapsid in lung; type: in vivo
# Method: (§1) To detect viral antigen, sections were labelled with anti-SARS-CoV-2 nucleocapsid protein rabbit IgG monoclonal antibody (GeneTex; GTX635679) at a 1:5,000 dilution and processed using a Leica Bond Max automated IHC stainer. Leica Bond Polymer Refine Detection (Leica; DS9800) with DAB was used as the chromogen. Image acquisition was performed using a Roche Ventana DP200 slide scanner. Digital image analysis was performed using QuPath software[65],[66] v.0.2.3. Tissues were annotated to include all available lung tissue or all brain tissue excluding cerebellum, as cerebellar tissue was not available for all mice. Following annotation, automated detection was performed using automated SLIC superpixel segmentation with a DAB mean detection threshold of 0.18892.
# [2] = test system: SARS-CoV-2 (USA-WA1/2020, lineage A); assay: K18-hACE2 mouse model of SARS-CoV-2, IHC of nucleocapsid with digital image analysis; type: in vivo, K18-hACE2 mice; conditions: for Num Positive per mm^2 (IHC) / Positive % (IHC): Lung, Figure 5 Panel G, individual animals
# Method: as §1
# [3] = test system: SARS-CoV-2 B.1.617.2 (Delta); set-up: species or system K18-hACE2 mice; conditions: mouse, in vivo
# [4] = test system: SARS-CoV-2 (USA-WA1/2020, lineage A); set-up: species or system K18-hACE2 mice; conditions: mouse, in vivo
# [5] = test system: SARS-CoV-2 B.1.617.2 (Delta); assay: microbe, parasite or virus in culture; type: cell-based; conditions: India
# [6] = biological target: mouse TMPRSS2 (Mus musculus, UniProt Q9JIQ8); assay: cell-based
# Chain of mouse TMPRSS2 (Q9JIQ8 whole entry): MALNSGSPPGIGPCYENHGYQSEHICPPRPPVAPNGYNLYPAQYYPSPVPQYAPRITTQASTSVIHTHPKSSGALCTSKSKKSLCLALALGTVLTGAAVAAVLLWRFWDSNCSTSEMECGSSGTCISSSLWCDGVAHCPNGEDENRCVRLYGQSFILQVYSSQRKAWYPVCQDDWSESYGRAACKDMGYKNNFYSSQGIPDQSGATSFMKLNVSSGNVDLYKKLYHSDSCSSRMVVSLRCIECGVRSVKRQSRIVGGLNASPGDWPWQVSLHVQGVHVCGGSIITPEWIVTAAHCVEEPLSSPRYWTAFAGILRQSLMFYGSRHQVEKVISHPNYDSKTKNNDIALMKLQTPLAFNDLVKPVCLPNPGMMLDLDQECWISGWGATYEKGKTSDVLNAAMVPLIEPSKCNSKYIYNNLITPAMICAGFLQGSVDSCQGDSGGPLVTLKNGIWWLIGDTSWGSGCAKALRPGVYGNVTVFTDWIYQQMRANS
# [7] = test system: SARS-CoV-2 VOCs; assay: SARS-CoV-2 VOC infection of Calu-3 cells, summary over all VOCs; type: cell-based; conditions: Severe acute respiratory syndrome coronavirus 2, range over VOCs
# [8] = test system: SARS-CoV-2 (USA-WA1/2020, lineage A); type: in vivo, K18-hACE2 mice; conditions: individual animals
# [9] = individual mice, 8-day regimen, tissue at death or end-point
# [10] = Figure S8 C, tissue plaque assay, Females
# [11] = Figure S8 C, tissue plaque assay, Males
smiles,measurement,setting,value
"CS(=O)(=O)NC(CCC(N)=O)C(=O)NC(Cc1ccccc1)C(=O)NC(CCCNC(=N)N)C(=O)c1nc2ccccc2s1 (centres unmarked) [Compound N-0385, Ms-QFR-kbt]","Num Positive events/mm^2 (nucleocapsid IHC, lung)","[1]; individual mice (f = female, m = male), single dose 12 hpi, 3 dpi, Fig. 6f, listed as n385",2181.1 events/mm^2 and 5.047 events/mm^2 and 10.41 events/mm^2 and 9.171 events/mm^2 and 935.88 events/mm^2 and 0.9105 events/mm^2 and 3.523 events/mm^2 and 51.75 events/mm^2 and 3.842 events/mm^2 and 20.48 events/mm^2
same,reduction in IHC viral staining in lung at 3 dpi,"[1]; single dose at 12 hpi, vs saline-treated group",more than 50%
same,Num Positive per mm^2 (IHC),[2]; Females,5.547 per mm^2 and 9.942 per mm^2 and 13.6 per mm^2 and 13.27 per mm^2 and 7.069 per mm^2
same,Positive % (IHC),[2]; Females,0.0549% and 0.0981% and 0.1335% and 0.1309% and 0.07%
same,Num Positive per mm^2 (IHC),[2]; Males,19.22 per mm^2 and 9.103 per mm^2 and 13.04 per mm^2 and 20.75 per mm^2 and 10.41 per mm^2
same,Positive % (IHC),[2]; Males,0.1899% and 0.0899% and 0.1288% and 0.204% and 0.1028%
same,Brain No. Positive (IHC detections),[2]; [9],113 and 131 and 205 and 255 and 133 and 201 and 429346 and 137295 and 271623 and 125
same,Brain No. Positive per mm^2,[2]; [9],2.79 per mm^2 and 3.006 per mm^2 and 3.517 per mm^2 and 4.198 per mm^2 and 3.156 per mm^2 and 4.077 per mm^2 and 7967.3 per mm^2 and 2771 per mm^2 and 5985.4 per mm^2 and 3.495 per mm^2
same,Brain Positive %,[2]; [9],0.0277% and 0.0298% and 0.035% and 0.0417% and 0.0314% and 0.0404% and 79.52% and 27.59% and 59.16% and 0.0347%
same,Lung No. Positive (IHC detections),[2]; [9],192 and 131 and 152 and 95 and 269 and 3067 and 1648 and 28511 and 272
same,Lung No. Positive per mm^2,[2]; [9],6.545 per mm^2 and 5.06 per mm^2 and 8.682 per mm^2 and 7.096 per mm^2 and 3.624 per mm^2 and 7.345 per mm^2 and 133.68 per mm^2 and 86.7 per mm^2 and 861.5 per mm^2 and 8.911 per mm^2
same,Lung Positive %,[2]; [9],0.065% and 0.0502% and 0.0856% and 0.0701% and 0.0366% and 0.0726% and 1.322% and 0.8535% and 8.502% and 0.088%
same,reduction of IHC staining (nucleocapsid) in lung at 3 dpi,"[2]; intranasal once daily day −1 to day 2, vs saline-treated mice",98%
same,weight gain (six days after infection),[3],2%
same,weight loss (six days after infection),[3],5%
same,average weight loss at 6 dpi,[4],3%
same,survival,[4],100%
same,survival to the end-point (14 dpi),[4],70%
same,weight gain at 6 dpi,[4],1%
same,weight gain at time of death or the study end-point,[4],2%
same,weight loss at the study end-point,[4],3%
same,"infection, dose response Figure 3c (nucleocapsid)",[5]; log [C] (nM) 0.20412,60.9172 and 87.9076 and 85.6813 and 84.0612
same,"infection, dose response Figure 3d (dsRNA)",[5]; log [C] (nM) 0.20412,68.4547 and 86.2131 and 100
same,"infection, dose response Figure 3d (dsRNA)",[5]; log [C] (nM) 3,5.293 and 4.1962
same,"infection, dose response Figure 3c (nucleocapsid)",[5]; log [C] (nM) -0.49485,94.4352 and 99.5627 and 82.7139
same,"infection, dose response Figure 3d (dsRNA)",[5]; log [C] (nM) -0.49485,78.2794 and 100
same,"infection, dose response Figure 3c (nucleocapsid)",[5]; log [C] (nM) -1.19382,98.0243 and 101.283 and 99.1734 and 90.3686
same,"infection, dose response Figure 3d (dsRNA)",[5]; log [C] (nM) -1.19382,100 and 84.9713
same,IC50,"[6]; Vero E6 cells transfected with mTMPRSS2, 24 h, mean ± SD, n = 3, read-out: mouse TMPRSS2 (mTmprss2) activity IC50",12.3 ± 1.9 nM
same,IC50,"[6]; mTMPRSS2, mean of independent experiments, Figure S1C, read-out: IC50 Mean",12.3 nM
same,IC50,"[6]; mTMPRSS2, single experiments N1-N3, Figure S1C, read-out: IC50 determined from independant experiments",12.2 nM and 14.3 nM and 10.4 nM
same,EC50,"[7]; read-out: EC50 against all VOCs, dsRNA staining",2.6 to 26.5 nM
same,EC50,"[7]; read-out: EC50 against all VOCs, nucleocapsid staining",2.1 to 13.9 nM
same,PFU/g,[8]; [10],0 PFU/g
same,PFU/mL,[8]; [10],0 PFU/mL
same,PFU/g,[8]; [11],0 PFU/g and 4852.94 PFU/g and 5882.35 PFU/g and 11764706 PFU/g
same,PFU/mL,[8]; [11],0 PFU/mL and 970.588 PFU/mL and 1176.47 PFU/mL and 2352941 PFU/mL
same,Average Plaques,"[8]; Males, Figure 5 Panel F, at the Dilution Factor",53.25 and 0
same,PFU/g,"[8]; Males, Figure 5 Panel F",2662500 PFU/g and 0 PFU/g
same,PFU/mL,"[8]; Males, Figure 5 Panel F",532500 PFU/mL and 0 PFU/mL
same,Average Plaques,"[8]; endpoint plaque assay (Panel H), females",0
same,PFU/g,"[8]; endpoint plaque assay (Panel H), females, tissue resuspended at 5ul/mg",0 PFU/g
same,Average Plaques,"[8]; endpoint plaque assay (Panel H), males",0
same,PFU/g,"[8]; endpoint plaque assay (Panel H), males, tissue resuspended at 5ul/mg",0 PFU/g
